We go through one compound from US4378348A (priority 1979, dated 1983).

This data set can be described thus: in vivo. The note with it: mouse, iv.

Source text: The substance of this invention was intravenously administered to male mice of DD strain weighing 20 to 21 g and checked for acute toxicity.

On to `CN[C@H](CC(C)C)C(=O)N[C@H]1C(=O)N[C@@H](CC(N)=O)C(=O)N[C@H]2C(=O)N[C@H]3C(=O)N[C@H](C(=O)N[C@H](C(=O)O)c4cc(O)cc(O)c4-c4cc3ccc4O)[C@H](O)c3ccc(c(Cl)c3)Oc3cc2cc(c3O[C@@H]2O[C@H](CO)[C@@H](O)[C@H](O)[C@H]2O[C@H]2C[C@](C)(N)[C@H](O)[C@H](C)O2)Oc2ccc(cc2Cl)[C@H]1O` [vancomycin], for which the LD50 (as a rule, the dose at which mortality reaches 50%) lay within 400 to 500 mg/kg.
